Data on 8 molecules can be found in US20250032425A1, “FIRST IN CLASS USE OF ESTROGEN RECEPTOR BETA AGONISTS IN TREATING ANGELMAN SYNDROME AND RELEVANT AUTISM SPECTRUM DISORDERS” (BROWN UNIVERSITY, priority 2023, published 2025).

“Also recorded” adds a separate entry of the source.

Holding throughout (format): cell-based, human
One assay concerns UBE3A-deficient iOPCs. The assay is described as follows: Ki67 (and PCNA) immunoblotting in UBE3A-knockdown iOPCs: compound screen and rescue of proliferation. Particulars: for impact of UBE3A loss on OPC proliferation (FIG. 18F, 19G): ERβ activators of different structural classes; for restoration of Ki67 expression in compound screen: Ki67 immunoblotting normalized to siNC=1.0; for effect of AC-186 to enhance proliferation of iOPCs with UBE3A knockdown (Ki67): MEK inhibitor with AC-186 co-treatment (10 μM, 24 hours). The procedure: Given the scarcity of knowledge regarding UBE3A function in oligodendrocyte biology, a comprehensive exploration of various cellular functions was performed, leveraging the high-throughput capabilities of the iPSC-based methodology (e.g., as described herein). We selected over 45 compounds with known targeted cellular actions (Table 1). These were chosen based on their documented effects on UBE3A, their ability to promote oligodendrocyte development and myelination, or their protective 10 roles in neural tissue. UBE3A expression was modulated using siRNA, achieving a controlled reduction that decreased OPC proliferation by approximately 50%, as evidenced by Ki67 protein levels.
iPSC Culturing and Generation of Induced Human Brain Cells Including Oligodendroglia, Neurons (IN), Astrocytes (iAs) and Microglia (iMG) The generation of iPSC-derived human oligodendrocyte precursor cells (iOPCs) was carried out according to a previously published protocol by Vulakh and Yang et al., 2023 (Characterizing the Neuron-Glial Interactions by the Co-cultures of Human iPSC-Derived Oligodendroglia and Neurons. Methods Mol. Biol. 2683), which itself was a modification of an earlier protocol by Assetta et al., 2020 (Generation of Human Neurons and Oligodendrocytes from Pluripotent Stem Cells for Modeling Neuron-Oligodendrocyte Interactions. J Vis Exp.). The process began with the control iPSCs, which is a well-characterized control reference line acquired from the NIH-funded iPSC Neurodegenerative Disease Initiative (INDI, (Ramos, D. M., Skarnes, W. C., Singleton, A. B., Cookson, M. R., and Ward, M. E. (2021). Tackling neurodegenerative diseases with genomic engineering: A new stem cell initiative from the NIH. Neuron 109, 1080-1083. 10.1016/j.neuron.2021.03.022)), distributed by the Jackson Laboratory. These iPSCs were maintained in mTeSR plus medium (StemCell Technologies, #05825) and expanded in Stem Flex medium (Fisher Scientific. #A3349401) for the induction of neural progenitor cells (INPC). The iNPCs were derived by treating iPSCs with a commercial SMAD inhibitor medium (StemCell Technologies, #08582) for 7 days (Week 1). Subsequently, NPCs were further induced to become OPCs by a 7-day incubation (Week 2) with a chemically-defined OPC medium: DMEM/F12 medium (Thermo Fisher, #11320033) supplemented by 10 ng/ml PDGF-AA (R&D Systems, #221-AA-025), 1 μM SAG (Tocris, #4366), […] N-Acetyl-Cysteine (Millipore Sigma, #A9165-5G), 20 ng/mL bFGF (R&D Systems, #233-FB-025/CF), 1% N2 supplement (Thermo Fisher, #17502048), and 1% B27 supplement (Thermo Fisher, #17504044). […] The additional incubation with OL medium for 7-14 days (Week 4-5) yielded mature, myelinating OLs.
(§1) The siRNAs targeting UBE3A (Thermo Fisher, #4390815 and #4390816), estrogen receptors (Thermo Scientific #145909 for ESRβ, #145539 for ESRα, and #4390824 for GPER), and negative control (Thermo Scientific, #AM4615) were obtained commercially. The 10-20 nM final concentration was used with Lipofectamine RNAiMAX transfection reagent (Thermo Scientific #13778075) and incubated for at least 48 hours before the treatments of therapeutic compounds or other reagents.
Cells were collected by fast spin down in centrifuge tubes before lysis in RIPA buffer (ThermoFisher, #89901) supplemented with proteinase inhibitor cocktail (Sigma-Aldrich, #5892791001) on ice. Lysates were then spun down at 15000 rpm for 10 mins, the supernatant was collected and mixed with 4× Laemmle sample buffer (Bio-Rad, #1610747) and cooked 10 mins before SDS-PAGE and transferred with Bio-Rad fast transfer system, the membranes were blocked for one hour in 1× Tris Buffered Saline (TBS) with 1% Casein buffer (Bio-Rad, #1610782) and incubated with primary antibodies overnight at 4 degrees. […]

The subject of assay [1] is UBE3A-deficient iOPCs and iOLs. The assay is described as follows: Oligodendrocyte differentiation of UBE3A-deficient iOPCs into iOLs (immunoblotting of Ki67, MAG, CNPase). Particulars: UBE3A-deficient iOLs; AC-186 (10 µM), clemastine (2.5 μM); 3 days.
Description: FIG. 25C: Immunoblotting was conducted to assess the impact of UBE3A depletion on ESR-β expression during oligodendrocyte differentiation. Protein levels of ESR-β in UBE3A-deficient iOPCs and subsequently differentiated iOLs were quantified, normalized against the loading control GAPDH, and expressed relative to the iOPC+siNC control condition (set at 1.0). […] Levels of Ki67 and Myelin Associated Glycoprotein (MAG) were measured in UBE3A-deficient iOPCs and iOLs differentiated from them, normalized against GAPDH, and compared to the iOPC+siNC condition. n=4 experiments. FIG. 25E: Immunoblotting to examine the role of UBE3A for OPC self-renewal and oligodendrocyte differentiation across different developmental stages. Expression of maturation and myelination markers (MBP, MAG, PLP1, CNPase) was quantified following UBE3A depletion timed from iOPCs to pre-iOLs, normalized against TUBB1. and compared to the iOPC+siNC control condition (set at 1.0). n=4 experiments.
Assay [2] concerns AS iOPCs differentiated into iOLs. The assay can be described thus: Differentiation of AS patient-derived iOPCs into iOLs (MAG, CNPase, MBP). Particulars: AC-186 10 μM or clemastine 2.5 μM, 72 hours.
For assay [3], the system named is iOPCs expressing Cas9 and a sgRNA targeting UBE3A. The assay is described as follows: EdU incorporation in iOPCs with CRISPR/Cas9 UBE3A depletion (Lenti-sgUBE3A #1-3). As to conditions: 10 μM; any of the sgRNAs. The procedure: The sgRNAs targeting UBE3A, and negative control were obtained from Applied Biological Materials Inc. Targeting sgRNA sequences against UBE3A are: sgRNA1, […]; sgRNA2, […]; sgRNA3, […]. These sgRNAs were integrated into the backbone of the negative control pLenti-U6-sgRNA-SFFV-Cas9-2A-Puro. All constructs were packaged into lentiviruses and concentrated by Lenti-X Concentrator (Takara Bio #631231). In each experiment, 5-10 μl of concentrated virus was administered into ˜70% confluent iOPCs cultures in 6-well plates. One day post-lentiviral transduction, iOPC cultures were treated with approximately 5 μg/ml Puromycin to isolate those iOPCs which are expressing Cas9/sgRNAs. Following a day of selection, the iOPCs were then seeded on gelatin-coated coverslips placed in 24-well plates at a density of 100,000 cells per well. After another day allowed for cell stabilization, treatment with either the vehicle control (DMSO), AC-186, DPN, or LY500307 commenced at a standard concentration of 10 μM. A final 24-hour period after this treatment saw the cells exposed to […] for three hours, preparing them for subsequent immunofluorescence staining.
The EdU labeling kit from ThermoFisher Scientific (#C10637) was used to trace cell proliferation by incubating iOPCs with 2 μM EdU for three hours before fixation. Following EdU incorporation, cells were fixed in 4% paraformaldehyde, blocked with normal serum, and stained with primary antibodies, Rabbit anti-Ki67 and Mouse anti-UBE3A. These steps were conducted according to the manual of the labeling kit and also detailed immunofluorescence staining protocols described below, to ensure specific detection of the proliferation marker Ki67 and the ubiquitin-protein ligase UBE3A in the cells for subsequent imaging analysis.

Assay [4] has as its system ERK/MAPK signaling pathway. The assay is described as follows: ERK/MAPK and S6 activation in iOPCs by immunoblotting (phosphorylated to total ratio). As to conditions: MEK inhibitor added to UBE3A-depleted OPCs with AC-186.
Description: FIGS. 20A-20E depict the identification of ESR-β signaling pathway in regulating OPC proliferation impaired by UBE3A depletion. FIG. 20A: Immunofluorescence to track estrogen receptor (ESR) expression in OPCs, by staining of all 3 ESRs, ESR-α, ESR-β and GPER (top panels), in iOPCs co-labeled with UBE3A (middle panels) and DAPI; scale bar, 100 μm. […] FIG. 20B: Immunoblotting to assess OPC expression of individual ESRs, by analyzing protein levels of ESR-α, ESR-β and GPER in iOPCs treated with siNC or siUBE3A, normalized to GAPDH and expressed relative to the siNC condition (set as 1.0). After treatment with siUBE3A, expression of ESR-β was decreased, while expression of GPER was increased. n=5-6 experiments. FIG. 20C: The activation of the ERK/MAPK signaling pathway in OPCs, particularly downstream of ESR-β, was analyzed in iOPCs subjected to 6 knockdown conditions: siNC, siUBE3A, siESRα, siESRβ, and combinations of siUBE3A with siESRα or siESRβ. These were followed by treatment with vehicle control or the ESR-β agonist AC-186 (10 μM, 30 min). The activation of ERK and its substrate S6 was determined by the ratio of phosphorylated to total ERK and S6 levels, adjusted relative to the vehicle control group (standard value of 1.0). ERK phosphorylation and S6 phosphorylation was decreased in cells treated with siESRβ, or siESRβ and siUBE3A combined. n=3 experiments. FIG. 20D: Immunoblotting to evaluate the role of ERK/MAPK activation in the restoration of OPC proliferation following ESR-β activation, with the addition of ERK phosphorylation inhibitors U0126 or PD98059 to UBE3A-depleted OPCs, with or without AC-186 co-treatment (10 μM. 24 hours). The quantification of Ki67 expression and UBE3A levels, being normalized to β-tubulin (TUBB1) and compared to the siNC condition (value of 1.0). n=5 experiments. FIG. 20E: A schematic depicting the regulatory role of ESR-β signaling pathway in OPC proliferation, identified by combining genetic knockdown techniques and pharmacological interventions. Activation of ESR-β selectively triggers the ERK/MAPK pathway, as shown by ERK phosphorylation and the ERK substrate S6 activation, essential for cell proliferation. […] As applicable: statistical significance was determined using One-way ANOVA followed by post-hoc comparisons, with selected comparisons presented. Significance levels marked as *p<0.05. ** p<0.005. *** p<0.001. **** p<0.0001, ns not significant, across relevant comparisons.
as §1
Cells were collected by fast spin down in centrifuge tubes before lysis in RIPA buffer (ThermoFisher, #89901) supplemented with proteinase inhibitor cocktail (Sigma-Aldrich, #5892791001) on ice. Lysates were then spun down at 15000 rpm for 10 mins, the supernatant was collected and mixed with 4× Laemmle sample buffer (Bio-Rad, #1610747) and cooked 10 mins before SDS-PAGE and transferred with Bio-Rad fast transfer system, the membranes were blocked for one hour in 1× Tris Buffered Saline (TBS) with 1% Casein buffer (Bio-Rad, #1610782) and incubated with primary antibodies overnight at 4 degrees. After 3 times washing in TBST washing buffers (ThermoFisher, #28352), the membranes were incubated with HRP conjugated antibodies and developed with Clarity Max™ Western ECL Substrate (Bio-Rad, #1705062) before being filmed in the iBright imaging system.

[5] abbreviates: siUBE3A cells, 10 μM, 24 hours, normalized to GAPDH.

`Oc1ccc(-c2nc3cc(O)cc(Br)c3o2)cc1` [WAY-200070, reference compound]: in the assay with UBE3A-deficient iOPCs, the “impact of UBE3A loss on OPC proliferation (FIG. 18F, 19G)” value (“impact of UBE3A loss” below) was “similarly mitigated the impact of UBE3A loss on OPC proliferation”.

In the case of `CN1CCC[C@@H]1CCO[C@](C)(c1ccccc1)c1ccc(Cl)cc1` [clemastine, Clemastine, reference compound], in assay [1], the “oligodendrocyte differentiation (MAG), FIG. 25D” value is reported as “enhanced differentiation”. In assay [2], the “oligodendrocyte differentiation (MAG, CNPase, MBP)” value is listed as “positively influenced the differentiation process”.

In the case of `Oc1ccc([C@@H]2Oc3ccc(O)cc3[C@@H]3CCC[C@@H]32)cc1` [LY500307, reference compound], the “impact of UBE3A loss” value in the assay with UBE3A-deficient iOPCs is listed as “similarly mitigated the impact of UBE3A loss on OPC proliferation”. In the assay with UBE3A-deficient iOPCs (setting [5]), the “Ki67 expression (FIG. 19G)” value is listed as “increased expression” and the “PCNA expression (FIG. 19G)” value is recorded as “increased expression”. Besides, in assay [3], the “number of EdU+ cells” value is on record as “increased the number of EdU+ cells”.

In the case of “FGF: fibroblast growth factor; bFGF, human recombinant”, the “restoration of Ki67 expression in compound screen” value with UBE3A-deficient iOPCs (10 μM, 24 hours) is listed as “restored; also recorded: effectively normalized proliferation levels; also recorded: Statistically significant; also recorded: capable of restoring Ki67 expression”.

As for `O=C1C[C@@H](c2ccc(O)cc2)Oc2cc(O)ccc21` [Liquiritigenin, reference compound], in the assay with UBE3A-deficient iOPCs, the “impact of UBE3A loss” value was “similarly mitigated the impact of UBE3A loss on OPC proliferation”.

As to `COc1cccc(-c2cc(=O)c3ccccc3o2)c1N` [PD98059, reference compound], the “effect of AC-186 to enhance proliferation of iOPCs with UBE3A knockdown (Ki67)” value in the assay with UBE3A-deficient iOPCs is recorded as “reduced”. Also, the “ERK/MAPK pathway activation stimulated by AC-186” value in assay [4] is “inhibited”.

Turning to `N#CC(=C(/N)Sc1ccccc1N)/C(C#N)=C(\N)Sc1ccccc1N` [U0126, reference compound], the “effect of AC-186 to enhance proliferation of iOPCs with UBE3A knockdown (Ki67)” value in the assay with UBE3A-deficient iOPCs is “reduced”. For the same molecule, the “ERK/MAPK pathway activation stimulated by AC-186” value in assay [4] is given as “inhibited”.

B1: BDNF: brain-derived neurotrophic factor, human recombinant; neurotrophin that belongs to NGF-beta family (protein, UniProt P23560 19-247, looked up)
Neurotrophic factor BDNF …: APMKEANIRGQGGLAYPGVRTHGTLESVNGPKAGSRGLTSLADTFEHVIEELLDEDQKVRPNEENNKDADLYTSRVMLSSQVPLEPPLLFLLEEYKNYLDAANMSMRVRRHSDPARRGELSVCDSISEWVTAADKKTAVDMSGGTVTVLEKVPVSKGQLKQYFYETKCNPMGYTKEGCRGIDKRHWNSQCRTTQSYVRALTMDSKKRIGWRFIRIDTSCVCTLTIKRGR
Turning to B1, in the assay with UBE3A-deficient iOPCs (10 μM, 24 hours), the “restoration of Ki67 expression in compound screen” value was “restored; also recorded: effectively normalized proliferation levels; also recorded: Statistically significant; also recorded: capable of restoring Ki67 expression”.
